These results are taken from patent US4789675A, “1,4-benzoxazine derivatives and pharmaceutical use” (priority 1986, dated 1988).

The test system of one series is intracellular Ca^++. Particulars: (2) Ca++ liberated from intracellular store; (3) influx through receptor-operated channel; cited from earlier work.
The conditions of series [1]: in vivo; cited from earlier work.
In series [2] the test system is contraction of rabbit aorta strip caused by KCl. Briefly: Vasodilating action: inhibition of contraction of aorta strip caused by KCl. The settings on record: Oryctolagus cuniculus; compound 10^-5 M; KCl (6.0 mM); treated 30 minutes before the test; read-out: Inhibitory percent against contraction (KCl). The method, then:
(§1) A spiral strip of aorta of a rabbit (2 to 3 mm width, about 3 cm length) was allowed to equilibrate by hanging under 2 g force in a Krebs-Henseleitsolution. The solution was saturated with a mixture gas of 97% O2 -3% CO2 which was warmed to 37° C. Inhibitory actions of compounds (10^-5 M) of this invention against contraction of the aorta strip caused by KCl ([…]), norepinephrine (NE) (10^-6 M) or serotonin (5-HT) (10^-6 M), by treating the strip with a compound of this invention 30 minutes before the test (15 minutes in the case of 5-HT), are shown in Table 1 as inhibitory percentage.

In series [3] the test system is contraction of rabbit aorta strip caused by norepinephrine (NE). Briefly: Vasodilating action: inhibition of contraction of aorta strip caused by norepinephrine (NE). The settings on record: Oryctolagus cuniculus; compound 10^-5 M; NE 10^-6 M; treated 30 minutes before the test; read-out: Inhibitory percent against contraction (NE). The method, then: as §1
Series [4] has as its system caffeine-induced contraction of rabbit aorta strip depending on intracellular Ca^++. Briefly: Intracellular Ca++ antagonism: inhibition of caffeine-induced contraction of aorta strip in Ca-free/EGTA solution. Particulars: Oryctolagus cuniculus, caffeine 20 mM, Ca++ 0 mM, EGTA 5 mM, read-out: Inhibitory percent (caffeine contraction); for inhibition at 1 µM: compound 10^-6 M; for inhibition at 10 µM: compound 10^-5 M. The method, then:
A spiral strip of aorta of a rabbit (2 to 3 mm width, aobut 3 cm length) was allowed to equilibrate by hanging under 2 g force in a Krebs-Henseleitsolution. The solution was saturated with a mixture gas of 97% O2 -3% CO2, which was warmed to 37° C. The strip was moved into another Krebs-Henseleit solution containing Ca^++ OmM and EGTA 5 mM. Five minutes later, caffeine (20 mM) was added to the solution. The resulting contraction of the strip was made as the index of the contraction depending on intracellular Ca^++.

The subject of series [5] is Spontaneously hypertensive rats. Briefly: Antihypertensive action in spontaneously hypertensive rats (tail-cuff). In kind it is in vivo, rat. Particulars: 3 mg/kg oral, 1 hour after administration. How it is done:
Spontaneously hypertensive rats (male, 12 to 13 weeks old, blood pressure before administration of drug was about 200 mmHg) were used in groups of 3 individuals. After measuring tail arterial pressure of these animals by the tail-cuff method, the animals were orally given 3 to 60 mg/kg of each test compound of this invention as 2 ml of its suspension in gum arabic. Blood pressure measurements were made again one hour after administration of each test compound.

A short description of series [6]: Acute toxicity (oral, 7 days observation). The settings on record: rat, in vivo, male rats, five animals/group, seven days. The source says: Male Wister rats aged five weeks (five animals/group) were orally given the test compounds (Example No. 1, 14, 15 and 18) suspended in a 5% solution of gum arabic. Each animal so treated was observed over a period of seven days.

For series [7] the following is noted: cited from earlier work.
The test system of series [8] is ischemia-reperfusion-induced ventricular arrhythmia in rats. Briefly: Effect on the ischemia-reperfusion-induced ventricular arrhythmia in rats. The format is in vivo, rat. Particulars: 3, 10, and 20 mg/kg given orally. How it is done: Male Sprague-Dawley rats, 9 to 10 week old, were orally given the compounds or tap water at a volume of 5 ml/kg. After one hour, the animals were anesthetized with sodium pentobarbital (50 mg/kg, by intraperitoneal injection), and they were subjected to thoractomy under artificial respiration, and the left anterior descending coronary artery was occluded for five minutes. The incidences of ventricular tachycardia, ventricular fibrilation and cardiac arrest for ten minutes after reperfusion of the blood were calculated.

The subject of series [9] is acute renal failure in rats. Briefly: Effect on acute renal failure in rats (plasma urea nitrogen, BUN). The format is in vivo, rat. Particulars: 1, 3 and 10 mg/kg given orally. The method, then: Male sprague-Dawley rats, 6 week old, were orally given the compunds or tap water at a volume of 5 ml/kg. After one hour, the animals were anesthetized with sodium pentobarbital. The animals were subjected to laparotomy, and the left renal artery was clamped completely for one hour. The clamp was undone, and the incision was closed. The animals were again given orally the compounds or tap water 20 hours later. Further four hours later, the animals were again anesthetized, and the blood was obtained from the abdominal aorta. The plasma was separated for measurement of urea nitrogen (BUN).

With `CN1CCN(CCCN2c3ccccc3Sc3ccc(C(F)(F)F)cc32)CC1` [trifluoperazine], in the series with intracellular Ca^++, the “action on intracellular Ca++” value is recorded as “showing antagonism against intracellular Ca^++”. Besides, the side effects result in series [1] was “side effects e.g. on the central nervous system”.

With `COc1ccccc1N1CCN(CCCC2Oc3cc4c(cc3NC2=O)CCCC4)CC1` (stereo not drawn) [Example 15], the inhibition at 10 µM in [2] came to 8%; in series [3], 100%. Also, the inhibition at 1 µM in series [4] was 58%. Further, in series [5], the “Antihypertensive effect (Δ mm Hg)” value amounted to 49 mm Hg. In [6], the LD50 (as a rule, the dose at which mortality reaches 50%) at 168 h was at least 300 mg/kg.

`O=C1Nc2cc3c(cc2OC1CCCN1CCN(c2ccccc2)CC1)CCCC3` (stereo not drawn) [Example 18]: in [4], the inhibition at 1 µM amounted to 59%. Besides, the “Antihypertensive effect (Δ mm Hg)” value in series [5] turned out to be 32 mm Hg. This compound returned an LD50 at 168 h in series [6] of at least 300 mg/kg.

As for `CCN(CC)CCCCCCCCOC(=O)c1cc(OC)c(OC)c(OC)c1` [TMB-8], the inhibition at 10 µM in [4] stood at 48%. Besides, the “action on intracellular Ca++” value in the series on intracellular Ca^++ was “weak in action”. The “antihypertensive action in vivo” value in [7] is “do not display antihypertensive action in vivo”.

Consider `NCCCCCCNS(=O)(=O)c1cccc2c(Cl)cccc12` [Example W-7], for which the “action on intracellular Ca++” value in the series with intracellular Ca^++ is listed as “weak in action”.

For `COc1cc2nc(N3CCN(C(=O)c4ccco4)CC3)nc(N)c2cc1OC` [prazosin], the side effects result in [1] is recorded as “orthostatic hypotension often observed”.

As to `COC(=O)C1=C(C)NC(C)=C(C(=O)OC)C1c1ccccc1[N+](=O)[O-]` [nifedipine], in the series on intracellular Ca^++, the “action on intracellular Ca++” value was “hardly acts on (2) and (3)”.

Turning to `O=C1Nc2cc3c(cc2OC1CCCN1CCN(c2cccc(F)c2)CC1)CCCC3` (stereo not drawn) [Example 14], the inhibition at 1 µM in series [4] amounted to 61%. Besides, the “Antihypertensive effect (Δ mm Hg)” value in [5] came to 54 mm Hg. This compound gave an LD50 at 168 h in series [6] of at least 300 mg/kg.

For the compound `O=C1Nc2cc3c(cc2OC1CCCN1CCN(c2ccc(F)cc2)CC1)CCCC3` (stereo not drawn) [Example 1, 2-{3-[4-(4-fluorophenyl)-1-piperazinyl]propyl}-6,7,8,9-tetrahydro-2H-naphtho[2,3-b][1,4]oxazin-3(4H)-one], in series [4], the inhibition at 10 µM amounted to 87% and the inhibition at 1 µM was 60%. In addition, in [8], the “incidences of cardiac functional abnormalities” value was “inhibited the incidences of cardiac functional abnormalities in a dose-dependent manner”. Besides, the “increase in BUN” value in [9] was “inhibited the increase in BUN”. In series [6], this compound yielded an LD50 at 168 h of at least 300 mg/kg.
